Active and inactive are the calls of the source. No cut-off for these calls is given here.
How the values were obtained:
Hep 3B2 [1] = assay: Induction of autophagic flux in human Hep3B cells harbouring mCherry-egfp-LC3 assessed as reduction in number of yellow puncta ratio at 10 nM incubated for 15 mins in presence of gamabufotalin by laser scanning confocal microscopic analysis; type: functional, cell-based
Huh-7 [2] = assay: Induction of apoptosis in human Huh-7 cells assessed as decrease in bcl-2 level at 10 nM incubated for 48 hrs in presence of gamabufotalin by immunoblot analysis; type: functional, cell-based
Huh-7 [3] = assay: Induction of apoptosis in human Huh-7 cells assessed as increase in caspase-3 level at 10 nM incubated for 48 hrs in presence of gamabufotalin by immunoblot analysis; type: functional, cell-based
Huh-7 [4] = assay: Induction of autophagic flux in human Huh-7 cells assessed as rescue of p62 at 10 uM incubated for 48 hrs in presence of gamabufotalin by Western blot analysis; type: functional, cell-based
Huh-7 [5] = assay: Induction of autophagy in human Huh-7 cells assessed as rescue of ULK1 phosphorylation level at upto 10 nM incubated for 48 hrs in presence of gamabufotalin by immunoblot method; type: functional, cell-based
Huh-7 [6] = assay: Induction of autophagic flux in human Huh-7 cells assessed as rescue of LC3-I accumulation at 10 uM incubated for 48 hrs in presence of gamabufotalin by Western blot analysis; type: functional, cell-based
Hep 3B2 [7] = assay: Induction of apoptosis in human Hep3B cells assessed as increase in cleaved caspase-3 level at 10 nM incubated for 48 hrs in presence of gamabufotalin by immunoblot analysis; type: functional, cell-based
Huh-7 [8] = assay: Induction of apoptosis in human Huh-7 cells assessed as early apoptotic cells at 10 nM incubated for 48 hrs by Annexin V-FITC/PI staining based flow cytometry method (reference value: 2.8%); type: functional
Huh-7 [9] = assay: Induction of autophagic flux in human Huh-7 cells harbouring mCherry-egfp-LC3 assessed as reduction in number of yellow puncta ratio at 10 nM incubated for 15 mins in presence of gamabufotalin by laser scanning confocal microscopic analysis; type: functional, cell-based
Hep 3B2 [10] = assay: Induction of apoptosis in human Hep3B cells assessed as increase in PARP level at 10 nM incubated for 48 hrs in presence of gamabufotalin by immunoblot analysis; type: functional, cell-based
Hep 3B2 [11] = assay: Induction of autophagy in human Hep3B cells assessed as downregulation of LC3II/LC3I ratio at 25 uM incubated for 48 hrs in presence of 4,6-dimorpholino-N-(4-nitrophenyl)-1,3,5-triazin-2-amine by immunoblot analysis; type: functional, cell-based
Huh-7 [12] = assay: Induction of apoptosis in human Huh-7 cells assessed as condensed nuclei at upto 25 uM incubated for 48 hrs by Hoechst33258 staining based fluorescence microscopy; type: functional, cell-based
Huh-7 [13] = assay: Induction of autophagy in human Huh-7 cells assessed as rescue of mTOR phosphorylation level at upto 25 nM incubated for 48 hrs in presence of chloroquine by immunoblot method; type: functional, cell-based
Huh-7 [14] = assay: Induction of apoptosis in human Huh-7 cells assessed as necrotic cells at 25 nM incubated for 48 hrs by Annexin V-FITC/PI staining based flow cytometry method (reference value: 0.7%); type: functional
Hep 3B2 [15] = assay: Induction of autophagy in human Hep3B cells assessed as reduction in ULK1 phosphorylation level incubated for 48 hrs by immunoblot method; type: functional, cell-based; conditions: dose 0-25 nM
Huh-7 [16] = assay: Induction of apoptosis in human Huh-7 cells assessed as late apoptotic cells at 20 nM incubated for 48 hrs by Annexin V-FITC/PI staining based flow cytometry method (reference value: 2.2%); type: functional
Hep 3B2 [17] = assay: Antitumor activity against human Hep3B cells xenografted in nude mouse model assessed as upregulation of bax expression at 5 mg/kg,ip administered every second day for 3 weeks by Western blot analysis; type: functional, organism-based
Hep 3B2 [18] = assay: Induction of autophagy in human Hep3B cells harbouring mCherry-egfp-LC3 assessed as reduction in yellow puncta ratio at 25 nM incubated for 15 mins in presence of 4,6-dimorpholino-N-(4-nitrophenyl)-1,3,5-triazin-2-amine by laser scanning confocal microscopic analysis; type: functional, cell-based
Hep 3B2 [19] = assay: Induction of apoptosis in human Hep3B cells assessed as early apoptotic cells at 25 nM incubated for 48 hrs in presence of chloroquine by Annexin V-FITC/PI staining based flow cytometry method (reference value: 1.3%); type: functional
Hep 3B2 [20] = assay: Induction of apoptosis in human Hep3B cells assessed as upregulation of PARP level […] incubated for 48 hrs in presence of 4,6-dimorpholino-N-(4-nitrophenyl)-1,3,5-triazin-2-amine by immunoblot analysis; type: functional, cell-based
Huh-7 [21] = assay: Induction of apoptosis in human Huh-7 cells assessed as increase in cleaved caspase-3 expression at upto 25 nM incubated for 48 hrs by Western blot analysis; type: functional, cell-based
Huh-7 [22] = assay: Induction of apoptosis in human Huh-7 cells assessed as increase in cleaved PARP level at 25 nM incubated for 48 hrs in presence of chloroquine by immunoblot analysis; type: functional, cell-based
Huh-7 [23] = assay: Induction of apoptosis in human Huh-7 cells assessed as viable cells at 25 nM incubated for 48 hrs in presence of 4,6-dimorpholino-N-(4-nitrophenyl)-1,3,5-triazin-2-amine by Annexin V-FITC/PI staining based flow cytometry method (reference value: 90.0%); type: functional; conditions: read-out: Activity
Huh-7 [24] = assay: Induction of apoptosis in human Huh-7 cells assessed as necrotic cells at 25 nM incubated for 48 hrs by Annexin V-FITC/PI staining based flow cytometry method (reference value: 1.0%); type: functional
Hep 3B2 [25] = assay: Induction of apoptosis in human Hep3B cells assessed as late apoptotic cells at 25 nM incubated for 48 hrs by Annexin V-FITC/PI staining based flow cytometry method (reference value: 3.5%); type: functional
[26] = Toxicity in mouse assessed as effect on liver at 5 mg/kg,ip administered every second day for 3 weeks by H and E staining based microscopic method; type: organism-based; conditions: in vivo, 504 h
Hep 3B2 [27] = assay: Induction of apoptosis in human Hep3B cells assessed as increase in caspase-3 level at 25 nM incubated for 48 hrs in presence of chloroquine by immunoblot analysis; type: functional, cell-based
Huh-7 [28] = assay: Induction of autophagic flux in human Huh-7 cells assessed as increase in LC3-II expression at upto 25 nM incubated for 48 hrs by Western blot analysis; type: functional, cell-based
Huh-7 [29] = assay: Induction of apoptosis in human Huh-7 cells assessed as necrotic cells at 20 nM incubated for 48 hrs by Annexin V-FITC/PI staining based flow cytometry method (reference value: 95.4%); type: functional
Hep 3B2 [30] = assay: Induction of autophagy in human Hep3B cells assessed as reduction in autophagic vesicles at 25 nM incubated for 48 hrs in presence of 4,6-dimorpholino-N-(4-nitrophenyl)-1,3,5-triazin-2-amine by transmission electron microscopy based analysis; type: functional, cell-based
Huh-7 [31] = assay: Induction of autophagic flux in human Huh-7 cells harbouring mCherry-egfp-LC3 assessed as reduction in number of yellow puncta ratio at 25 nM incubated for 15 mins in presence of chloroquine by laser scanning confocal microscopic analysis; type: functional, cell-based
Huh-7 [32] = assay: Induction of autophagic flux in human Huh-7 cells assessed as increase in high electron density vesicles at 25 nM incubated for 48 hrs by transmission electron microscopic analysis; type: functional, cell-based
Hep 3B2 [33] = assay: Antitumor activity against human Hep3B cells xenografted in nude mouse model assessed as downregulation of P62 expression at 5 mg/kg,ip administered every second day for 3 weeks by Western blot analysis; type: functional, organism-based

In the case of `CCN(CC)CCCC(C)Nc1ccnc2cc(Cl)ccc12` (stereo not drawn) [CHLOROQUINE], the Activity (Hep 3B2 [1]) was “Active”, the Activity (Huh-7 [2]) was “Active” and the Activity (Huh-7 [3]) was “Active”. For the same compound, the Activity (Huh-7 [4]) was “Active”, the Activity (Huh-7 [5]) was “Active” and the Activity (Huh-7 [6]) was “Active”. The Activity (Hep 3B2 [7]) was “Active”, the Activity (Huh-7 [8]) was 2.9% and the Activity (Huh-7 [9]) was “Active”. The Activity (Hep 3B2 [10]) was “Active”.
With `C[C@]12CC[C@H](O)C[C@H]1CC[C@@H]1[C@@H]2[C@H](O)C[C@]2(C)[C@@H](c3ccc(=O)oc3)CC[C@]12O` [GAMABUFOTALIN] the Activity (Hep 3B2 [11]) was “Active”, the Activity (Huh-7 [12]) was “Active” and the Activity (Huh-7 [13]) was “Active”. The Activity (Huh-7 [14]) was 6.3%, the Activity (Hep 3B2 [15]) was “Dose-Dependent Effect” and the Activity (Huh-7 [16]) was 28.8%. For the same compound, the Activity (Hep 3B2 [17]) was “Active”, the Activity (Hep 3B2 [18]) was “Active” and the Activity (Hep 3B2 [19]) was 17.9%. The Activity (Hep 3B2 [20]) was “Active”, the Activity (Huh-7 [21]) was “Active” and the Activity (Huh-7 [22]) was “Active”. The viability at 0.025 µM (Huh-7 [23]) was 76.8%, the Activity (Huh-7 [24]) was 1.1% and the Activity (Hep 3B2 [25]) was 13.7%. For the same compound, the Activity [26] was “Non-Toxic”, the Activity (Hep 3B2 [27]) was “Active” and the Activity (Huh-7 [28]) was “Active”. For the same compound, the Activity (Huh-7 [29]) was 60.8%, the Activity (Hep 3B2 [30]) was “Active” and the Activity (Huh-7 [31]) was “Active”. For the same compound, the Activity (Huh-7 [32]) was “Active” and the Activity (Hep 3B2 [33]) was “Active”.

From ChEMBL document CHEMBL5257089, “Gamabufotalin Induces Apoptosis and Cytoprotective Autophagy through the mTOR Signaling Pathway in Hepatocellular Carcinoma” (J Nat Prod, 2023)
